In one assay the test system is Human Jurkat T-cells (clone N). The assay can be described thus: Jurkat T-cell activation (anti-TCR, CD69 upregulation). The class given is cell-based.
Conditions: not given
The method, boiled down:
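Jurkat cells in RPMI + 5% FBS preincubated with compound 1 h at 37 °C, then stimulated with anti-TCR C305 at 500 ng/ml for 20 h. CD69 surface expression stained with anti-CD69-APC and read by flow cytometry; IC50 versus solvent-only control.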
Regarding `COc1ccc(Nc2nc(Nc3cc(C)c(O)c(Cl)c3)ncc2F)cc1Cl` [Compound R926968], the IC50 turned out to be 2020 nM.

The next assay has as its target T1, Syk kinase (Homo sapiens, UniProt P43405).
T1 construct: purchased Upstate, Lake Placid NY
The assay can be described thus: Syk kinase biochemical fluorescence polarization assay. Particulars: isolated Syk kinase, fluorescence polarization, 4 uM ATP. (In general: Polarisation of emitted light reports the rotation of a fluorescent probe.)
Molecule `COc1ccc(Nc2ncc(F)c(Nc3ccc4c(c3)NC(=O)[C@H](C)O4)n2)cc1Cl` [Compound R909321] had an IC50 of 104 nM.
For the molecule `COc1ccc(Nc2nc(Nc3cc(C)c(O)c(Cl)c3)ncc2F)cc1Cl` [Compound R926968], the IC50 is 235 nM.
Consider `COc1ccc(Nc2ncc(F)c(Nc3ccc4c(n3)NC(=O)CO4)n2)cc1Cl` [Compound R945399], for which the IC50 worked out at 166 nM.
`COc1cc(Nc2ncc(F)c(Nc3cccc(N)n3)n2)cc(OC)c1` [Compound R927077] came in with an IC50 of 602 nM.
Turning to `COc1ccc(Nc2ncc(F)c(Nc3ccc4c(n3)NC(=O)C(C)(C)O4)n2)cc1Cl` [Compound R940371], the IC50 was found to be 3640 nM.
The same measure, in the same setting: for `CNC(=O)CCn1ncc2cc(Nc3ncc(F)c(Nc4ccc5c(c4)NC(=O)C(C)(C)O5)n3)ccc21` [Compound R935433] the value was 70 nM; for `COc1cc(Nc2ncc(F)c(Nc3ccc4c(c3)NC(=O)C(F)(F)O4)n2)cc(OC)c1` [Compound R926970], 57 nM.
On the same count and under the same terms, for `COc1ccc(Nc2ncc(F)c(Nc3ccc4c(c3)C(N)CCO4)n2)cc1Cl` (racemic) [Compound R950428] the value was 127 nM; for `CC(=O)N(C)c1ccc(Nc2ncc(F)c(Nc3ccc4c(n3)NC(=O)C(C)(C)O4)n2)cc1` [Compound R945417], > 10000 nM.
As to `CNC(=O)COc1cccc(Nc2ncc(F)c(Nc3cccc(N)n3)n2)c1` [Compound R927080], the IC50 stood at 254 nM.
`Nc1cccc(Nc2nc(Nc3cccc(O)c3)ncc2F)n1` [Compound R927083] registered an IC50 of 449 nM.
In turn, `CN(C)C(=O)C1Cc2cc(Nc3ncc(F)c(Nc4ccc5c(c4)NC(=O)C(F)(F)O5)n3)ccc2O1` (stereo not drawn) [Compound R926983] came in with an IC50 of 12 nM.
For the molecule `COC(=O)N1CCN(c2ccc(Nc3ncc(F)c(NC4CC4)n3)cc2)CC1` [Compound R945371], the IC50 came out at 1300 nM.
`O=C1COc2ccc(Nc3nc(Nc4ccc(Cl)c(Cl)c4)ncc3F)nc2N1` [Compound R945398] showed an IC50 of 182 nM.
`CCOC(=O)CCn1ncc2cc(Nc3ncc(F)c(Nc4ccc5c(c4)NC(=O)C(C)(C)O5)n3)ccc21` [Compound R935431] gave an IC50 of 132 nM.
The molecule `Cc1cc(C)cc(Nc2ncc(F)c(Nc3ccc4c(n3)NC(=O)C(C)(C)O4)n2)c1` [Compound R945433] returned an IC50 of 431 nM.
As to `COc1c(Cl)cc(Nc2ncc(F)c(Nc3ccc4c(n3)NC(=O)CO4)n2)cc1Cl` [Compound R945400], the IC50 was determined as 17900 nM.
Consider `C[C@@H]1Oc2ccc(Nc3ncc(F)c(Nc4ccc5c(c4)NC(=O)[C@H](C)O5)n3)cc2NC1=O` [Compound R908952], for which the IC50 came to 41 nM.
Molecule `CNC(=O)COc1cccc(Nc2ncc(F)c(Nc3cc(C)c(O)c(Cl)c3)n2)c1` [Compound R945366] yielded an IC50 of 59 nM.
Consider `CCN(C(C)=O)c1ccc(Nc2ncc(F)c(Nc3ccc4c(n3)NC(=O)C(C)(C)O4)n2)cc1` [Compound R945418], for which the IC50 was > 10000 nM.
Consider `Cc1cccc(C)c1Nc1ncc(F)c(Nc2cccc(N)n2)n1` [Compound R927078], for which the IC50 turned out to be 222 nM.
`COc1ccc(Nc2ncc(F)c(Nc3ccc4c(n3)NC(=O)C(C)(C)O4)n2)cc1F` [Compound R940384]: the IC50 was > 10000 nM.
In turn, `COc1ccc(Nc2ncc(F)c(Nc3ccc4c(c3)NC(=O)C(F)(F)O4)n2)cc1Cl` [Compound R926981] showed an IC50 of 10 nM.

Another assay deals with cultured human mast cells (CHMC). The assay can be described thus: CHMC low cell density IgE activation: tryptase assay. The assay is classed as cell-based. Particulars: low cell density; read-out: CHMC anti-IgE Tryptase. The method, boiled down:
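Cells pelleted, taken up in warm MT, plated at 1000-1500/well, held 1 hr 37° C. Anti-IgE added, 30 min 37° C. Plates spun; supernatant mixed with tryptase substrate, 30 min RT.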
Take `COc1ccc(Nc2ncc(F)c(Nc3ccc4c(c3)NC(=O)[C@H](C)O4)n2)cc1Cl` [Compound R909321]: the IC50 amounted to 163 nM.
`COc1ccc(Nc2nc(Nc3cc(C)c(O)c(Cl)c3)ncc2F)cc1Cl` [Compound R926968]: the IC50 is 249 nM.
Still for that read-out and setting: the result for `COc1ccc(Nc2ncc(F)c(Nc3ccc4c(n3)NC(=O)CO4)n2)cc1Cl` [Compound R945399] reads 163 nM; that for `COc1cc(Nc2ncc(F)c(Nc3cccc(N)n3)n2)cc(OC)c1` [Compound R927077], 284 nM; that for `COc1ccc(Nc2ncc(F)c(Nc3ccc4c(n3)NC(=O)C(C)(C)O4)n2)cc1Cl` [Compound R940371], 316 nM.
For `CNC(=O)CCn1ncc2cc(Nc3ncc(F)c(Nc4ccc5c(c4)NC(=O)C(C)(C)O5)n3)ccc21` [Compound R935433], the IC50 was 106 nM.
Same read-out and setting: for `COc1cc(Nc2ncc(F)c(Nc3ccc4c(c3)NC(=O)C(F)(F)O4)n2)cc(OC)c1` [Compound R926970] the value was 60 nM; for `COc1ccc(Nc2ncc(F)c(Nc3ccc4c(c3)C(N)CCO4)n2)cc1Cl` (racemic) [Compound R950428], 123 nM; for `CC(=O)N(C)c1ccc(Nc2ncc(F)c(Nc3ccc4c(n3)NC(=O)C(C)(C)O4)n2)cc1` [Compound R945417], 2520 nM.
As for `CNC(=O)COc1cccc(Nc2ncc(F)c(Nc3cccc(N)n3)n2)c1` [Compound R927080], the IC50 came to 204 nM.
Regarding `Nc1cccc(Nc2nc(Nc3cccc(O)c3)ncc2F)n1` [Compound R927083], the IC50 came out at 316 nM.
Turning to `CN(C)C(=O)C1Cc2cc(Nc3ncc(F)c(Nc4ccc5c(c4)NC(=O)C(F)(F)O5)n3)ccc2O1` (stereo not drawn) [Compound R926983], the IC50 is 195 nM.
For `COC(=O)N1CCN(c2ccc(Nc3ncc(F)c(NC4CC4)n3)cc2)CC1` [Compound R945371], the IC50 stood at 713 nM.
For `O=C1COc2ccc(Nc3nc(Nc4ccc(Cl)c(Cl)c4)ncc3F)nc2N1` [Compound R945398], the IC50 worked out at 7000 nM.
Consider `CCOC(=O)CCn1ncc2cc(Nc3ncc(F)c(Nc4ccc5c(c4)NC(=O)C(C)(C)O5)n3)ccc21` [Compound R935431], for which the IC50 came out at 124 nM.
Turning to `Cc1cc(C)cc(Nc2ncc(F)c(Nc3ccc4c(n3)NC(=O)C(C)(C)O4)n2)c1` [Compound R945433], the IC50 was 276 nM.
The same measure, in the same setting: the result for `COc1c(Cl)cc(Nc2ncc(F)c(Nc3ccc4c(n3)NC(=O)CO4)n2)cc1Cl` [Compound R945400] reads > 10000 nM.
On the same count and under the same terms, for `C[C@@H]1Oc2ccc(Nc3ncc(F)c(Nc4ccc5c(c4)NC(=O)[C@H](C)O5)n3)cc2NC1=O` [Compound R908952] the value was 80 nM; for `CNC(=O)COc1cccc(Nc2ncc(F)c(Nc3cc(C)c(O)c(Cl)c3)n2)c1` [Compound R945366], 112 nM; for `Cc1cccc(C)c1Nc1ncc(F)c(Nc2cccc(N)n2)n1` [Compound R927078], 245 nM.
For `COc1ccc(Nc2ncc(F)c(Nc3ccc4c(n3)NC(=O)C(C)(C)O4)n2)cc1F` [Compound R940384], the IC50 came out at 1320 nM.
For `COc1ccc(Nc2ncc(F)c(Nc3ccc4c(c3)NC(=O)C(F)(F)O4)n2)cc1Cl` [Compound R926981], the IC50 was 137 nM.

A further assay shares this test system. In words: CHMC low cell density ionomycin activation: tryptase assay. The assay is classed as cell-based. The note with it: low cell density; read-out: CHMC Ionomycin Tryptase.
As to `COc1ccc(Nc2ncc(F)c(Nc3ccc4c(c3)NC(=O)[C@H](C)O4)n2)cc1Cl` [Compound R909321], the IC50 turned out to be 30000 nM.
On the same count and under the same terms, the result for `COc1ccc(Nc2ncc(F)c(Nc3ccc4c(n3)NC(=O)CO4)n2)cc1Cl` [Compound R945399] reads > 10000 nM; that for `COc1cc(Nc2ncc(F)c(Nc3cccc(N)n3)n2)cc(OC)c1` [Compound R927077], 8800 nM; that for `CNC(=O)CCn1ncc2cc(Nc3ncc(F)c(Nc4ccc5c(c4)NC(=O)C(C)(C)O5)n3)ccc21` [Compound R935433], 16200 nM.
For `COc1cc(Nc2ncc(F)c(Nc3ccc4c(c3)NC(=O)C(F)(F)O4)n2)cc(OC)c1` [Compound R926970], the IC50 is > 10000 nM.
As for `COc1ccc(Nc2ncc(F)c(Nc3ccc4c(c3)C(N)CCO4)n2)cc1Cl` (racemic) [Compound R950428], the IC50 was 21000 nM.
For `CC(=O)N(C)c1ccc(Nc2ncc(F)c(Nc3ccc4c(n3)NC(=O)C(C)(C)O4)n2)cc1` [Compound R945417], the IC50 was > 10000 nM.
On to `Nc1cccc(Nc2nc(Nc3cccc(O)c3)ncc2F)n1` [Compound R927083], for which the IC50 was 19000 nM.
With `CN(C)C(=O)C1Cc2cc(Nc3ncc(F)c(Nc4ccc5c(c4)NC(=O)C(F)(F)O5)n3)ccc2O1` (stereo not drawn) [Compound R926983], the IC50 is > 10000 nM.
`COC(=O)N1CCN(c2ccc(Nc3ncc(F)c(NC4CC4)n3)cc2)CC1` [Compound R945371]: the IC50 was > 10000 nM.
For `C[C@@H]1Oc2ccc(Nc3ncc(F)c(Nc4ccc5c(c4)NC(=O)[C@H](C)O5)n3)cc2NC1=O` [Compound R908952], the IC50 is 6070 nM.
Still for that read-out and setting: the result for `CNC(=O)COc1cccc(Nc2ncc(F)c(Nc3cc(C)c(O)c(Cl)c3)n2)c1` [Compound R945366] reads > 10000 nM; that for `CCN(C(C)=O)c1ccc(Nc2ncc(F)c(Nc3ccc4c(n3)NC(=O)C(C)(C)O4)n2)cc1` [Compound R945418], > 10000 nM; that for `COc1ccc(Nc2ncc(F)c(Nc3ccc4c(c3)NC(=O)C(F)(F)O4)n2)cc1Cl` [Compound R926981], > 10000 nM.

The values above are taken from patent publication US8158621B2, “Methods of treating or preventing autoimmune diseases with 2,4-pyrimidinediamine compounds” (Rigel Pharmaceuticals, Inc., priority 2002, dated 2012).
